Results as given in PubChem BioAssay (NCI).
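Assay format: 96-well plates, 48-hour exposure. Here, GI50 denotes the concentration required for 50% inhibition of growth. TGI: concentration producing complete growth inhibition.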

Assays:
Test in all cases: NCI anticancer screen, dose series, 48 h
[1] = system: EKVX NSCLC
[2] = system: OVCAR-5 ovarian
[3] = system: RXF 393 renal
[4] = system: COLO 205 colon
[5] = system: KM12 colon
[6] = system: CAKI-1 renal
[7] = system: SNB-75 CNS
[8] = system: RPMI-8226 leukemia
[9] = system: SN12C renal
[10] = system: SNB-19 CNS
[11] = system: MALME-3M melanoma
[12] = system: A498 renal
[13] = system: SF-268 CNS
[14] = system: HT29 colon
[15] = system: HS 578T breast
[16] = system: MCF7 breast
[17] = system: A549 NSCLC
[18] = system: NCI-H23 lung
[19] = system: DU-145 prostate
[20] = system: OVCAR-4 ovarian
[21] = system: MDA-MB-231 breast
[22] = system: T-47D breast
[23] = system: HOP-62 NSCLC
[24] = system: SK-MEL-2 melanoma
[25] = system: K-562 leukemia
[26] = system: UO-31 renal
[27] = system: UACC-62 melanoma
[28] = system: LOX IMVI melanoma
[29] = system: SK-OV-3 ovarian
[30] = system: MDA-MB-435
[31] = system: SK-MEL-28 melanoma
[32] = system: SF-295 CNS
[33] = system: U251 CNS
[34] = system: OVCAR-8 ovarian
[35] = system: HOP-92 NSCLC
[36] = system: ACHN renal
[37] = system: CCRF-CEM leukemia
[38] = system: SW-620 colon
[39] = system: SF-539 CNS
[40] = system: NCI-H522 lung
[41] = system: TK-10 renal
[42] = system: 786-0 renal
[43] = system: MOLT-4 leukemia
[44] = system: NCI-H226 lung
[45] = system: HCT-116 colon
[46] = system: NCI-H460 lung
[47] = system: M14 melanoma
[48] = system: SK-MEL-5 melanoma
[49] = system: HCT-15 colon
[50] = system: PC-3 prostate
[51] = system: HL-60(TB) leukemia
[52] = system: NCI/ADR-RES ovarian
[53] = system: HCC-2998 colon
[54] = system: BT-549 breast
[55] = system: OVCAR-3 ovarian
[56] = system: UACC-257 melanoma
[57] = system: SR leukemia
[58] = system: IGROV1 ovarian

Cn1c2ccccc2c2c3[nH][nH]c(=O)c3c3c4ccccc4[nH]c3c21
GI50 [1]: 2.41 µM | TGI [1]: 8.1 µM | GI50 [2]: 4.21 µM | TGI [2]: > 100 µM | GI50 [3]: 1.51 µM | TGI [3]: 3.57 µM | GI50 [4]: 4.74 µM | TGI [4]: 21 µM | GI50 [5]: 0.493 µM | TGI [5]: 10.5 µM | GI50 [6]: 2.22 µM | TGI [6]: > 100 µM | GI50 [7]: 0.355 µM | TGI [7]: 3.53 µM | GI50 [8]: 2.96 µM | TGI [8]: 9.2 µM | GI50 [9]: 2.33 µM | TGI [9]: > 100 µM | GI50 [10]: 3.05 µM | TGI [10]: > 100 µM | GI50 [11]: 5.24 µM | TGI [11]: 29.6 µM | GI50 [12]: 1.61 µM | TGI [12]: 5.79 µM | GI50 [13]: 2.62 µM | TGI [13]: 14.4 µM | GI50 [14]: 3.13 µM | TGI [14]: 50.8 µM | GI50 [15]: 0.993 µM | TGI [15]: 5.88 µM | GI50 [16]: 1.63 µM | TGI [16]: 10.4 µM | GI50 [17]: 3.22 µM | TGI [17]: 16.8 µM | GI50 [18]: 1.85 µM | TGI [18]: 8.37 µM | GI50 [19]: 2.45 µM | TGI [19]: 29.1 µM | GI50 [20]: 2.6 µM | TGI [20]: 13.2 µM | GI50 [21]: 1.39 µM | TGI [21]: 46.1 µM | GI50 [22]: 2.05 µM | TGI [22]: 13.4 µM | GI50 [23]: 3.11 µM | TGI [23]: 10.4 µM | GI50 [24]: 1.77 µM | TGI [24]: 5.78 µM | GI50 [25]: 3.3 µM | TGI [25]: 15.9 µM | GI50 [26]: 2.68 µM | TGI [26]: 24.3 µM | GI50 [27]: 2.07 µM | TGI [27]: 5.81 µM | GI50 [28]: 1.09 µM | TGI [28]: 6.62 µM | GI50 [29]: 3.46 µM | TGI [29]: 64.8 µM | GI50 [30]: 2.03 µM | TGI [30]: 11.1 µM | GI50 [31]: 3.74 µM | TGI [31]: 12.9 µM | GI50 [32]: 3.14 µM | TGI [32]: 10.9 µM | GI50 [33]: 2.09 µM | TGI [33]: 21.1 µM | GI50 [34]: 2.9 µM | TGI [34]: 28 µM | GI50 [35]: 3.73 µM | TGI [35]: 8.98 µM | GI50 [36]: 2.6 µM | TGI [36]: > 100 µM | GI50 [37]: 2.89 µM | TGI [37]: 10.2 µM | GI50 [38]: 2.4 µM | TGI [38]: 14.3 µM | GI50 [39]: 1.22 µM | TGI [39]: 3.12 µM | GI50 [40]: 1.56 µM | TGI [40]: 10.4 µM | GI50 [41]: 4.74 µM | TGI [41]: 57.2 µM | GI50 [42]: 3.06 µM | TGI [42]: 31.6 µM | GI50 [43]: 1.89 µM | TGI [43]: 5.55 µM | GI50 [44]: 2.34 µM | TGI [44]: 22.6 µM | GI50 [45]: 1.32 µM | TGI [45]: 92.5 µM | GI50 [46]: 1.57 µM | TGI [46]: 10.8 µM | GI50 [47]: 3.05 µM | TGI [47]: 10 µM | GI50 [48]: 1.37 µM | TGI [48]: 5.04 µM | GI50 [49]: 2.47 µM | TGI [49]: 35.7 µM | GI50 [50]: 2.03 µM | TGI [50]: 11.3 µM | GI50 [51]: 2.46 µM | TGI [51]: 6 µM | GI50 [52]: 4.02 µM | TGI [52]: 37.5 µM | GI50 [53]: 2.74 µM | TGI [53]: 8.1 µM | GI50 [54]: 1.59 µM | TGI [54]: 5.3 µM | GI50 [55]: 1.94 µM | TGI [55]: 7.8 µM

Cc1ccc(C2=Nc3c(N)ncnc3NC(c3ccc4c(c3)OCO4)C2)cc1 (configuration not stated)
GI50 [1]: 16.2 µM | TGI [1]: > 100 µM | GI50 [2]: 32.1 µM | TGI [2]: > 100 µM | GI50 [3]: 3.5 µM | TGI [3]: 23.1 µM | GI50 [4]: 3.47 µM | TGI [4]: 21.7 µM | GI50 [5]: 3.79 µM | TGI [5]: 15 µM | GI50 [6]: 1.44 µM | TGI [6]: 19.1 µM | GI50 [7]: 4.55 µM | TGI [7]: 37.2 µM | GI50 [56]: 40 µM | TGI [56]: > 100 µM | GI50 [9]: 8.61 µM | TGI [9]: > 100 µM | GI50 [10]: 38.2 µM | TGI [10]: > 100 µM | GI50 [11]: 3.01 µM | TGI [11]: 26.8 µM | GI50 [12]: 6.33 µM | TGI [12]: 35.2 µM | GI50 [13]: 4.06 µM | TGI [13]: 16.3 µM | GI50 [14]: 3.81 µM | TGI [14]: 33.9 µM | GI50 [15]: 7.28 µM | TGI [15]: 40 µM | GI50 [16]: 3.42 µM | TGI [16]: > 100 µM | GI50 [17]: 7.09 µM | TGI [17]: 52.9 µM | GI50 [18]: 10.2 µM | TGI [18]: 63.3 µM | GI50 [19]: 4.52 µM | TGI [19]: 14.7 µM | GI50 [20]: 17.7 µM | TGI [20]: 74.9 µM | GI50 [21]: 4.37 µM | TGI [21]: 19.5 µM | GI50 [22]: 5.72 µM | TGI [22]: > 100 µM | GI50 [23]: > 100 µM | TGI [23]: > 100 µM | GI50 [25]: 4.19 µM | TGI [25]: > 100 µM | GI50 [26]: 10.8 µM | TGI [26]: 26.5 µM | GI50 [27]: 4.09 µM | TGI [27]: > 100 µM | GI50 [28]: 6.38 µM | TGI [28]: 25 µM | GI50 [29]: 15.8 µM | TGI [29]: 52.3 µM | GI50 [30]: 1.15 µM | TGI [30]: 4.12 µM | GI50 [31]: 10.2 µM | TGI [31]: 38 µM | GI50 [32]: 3.45 µM | TGI [32]: 21.7 µM | GI50 [33]: 4.55 µM | TGI [33]: 16.3 µM | GI50 [34]: 13.5 µM | TGI [34]: > 100 µM | GI50 [36]: 7.74 µM | TGI [36]: 36.7 µM | GI50 [38]: 3.56 µM | TGI [38]: 16.8 µM | GI50 [39]: 4.98 µM | TGI [39]: 21.7 µM | GI50 [40]: 3.67 µM | TGI [40]: 23.2 µM | GI50 [41]: 4.47 µM | TGI [41]: 21.1 µM | GI50 [42]: > 100 µM | TGI [42]: > 100 µM | GI50 [43]: 2.66 µM | TGI [43]: > 100 µM | GI50 [44]: 12.6 µM | TGI [44]: 47.9 µM | GI50 [57]: 0.249 µM | TGI [57]: 3.85 µM | GI50 [46]: 3.59 µM | TGI [46]: 12.8 µM | GI50 [47]: > 100 µM | TGI [47]: > 100 µM | GI50 [48]: 3.85 µM | TGI [48]: 37.5 µM | GI50 [49]: 3.14 µM | TGI [49]: 13.7 µM | GI50 [51]: 0.718 µM | TGI [51]: > 100 µM | GI50 [52]: 3.52 µM | TGI [52]: 22.9 µM | GI50 [53]: 6.3 µM | TGI [53]: 67.1 µM | GI50 [55]: 2.75 µM | TGI [55]: 6.11 µM | GI50 [58]: 3.34 µM | TGI [58]: 26.2 µM
